# Literature values as cited in patent US20170128514A1, “PHARMACEUTICAL COMPOSITION FOR TREATING CARDIO-CEREBROVASCULAR DISEASES AND METHOD FOR PREPARING THE SAME” (priority 2014, published 2017).
# Key:
# [1] = tested on: acute coronary syndrome (ACS); conditions: human, in vivo
# [2] = tested on: thrombocytopenia caused by heparin
substance,measurement,setting,value
hirudin,efficacy in treating acute coronary syndrome (ACS) compared with heparin,[1],more significant than the heparin
same,patients with blood platelets recovered and normal,[2]; 14.4 hrs. after the treatment,88.7%
same,bleeding,[2]; in vivo,bleeding only occurs in a dose much larger than the required dose for anti-coagulation
